Earlier results on 4 compounds are cited in patent US20090081697A1, “Methods of growing crystals of free and antibiotic complexed large ribosomal subunits, and methods of rationally designing or identifying antibiotics using structure coordinate data derived from such crystals” (Yeda Research and Development Co. Ltd., priority 2001, published 2009).

Data set [1] deals with ribosomes. Conditions: compared with erythromycin; Hansen et al. 1999.
The subject of data set [2] is ribosomes. To be noted: Tenson et al. 1996.
The conditions of data set [3]: relative to erythromycin.

Consider `CC[C@H]1OC(=O)[C@H](C)C(=O)[C@H](C)[C@@H](O[C@@H]2O[C@H](C)C[C@H](N(C)C)[C@H]2O)[C@](C)(OC)C[C@@H](C)C(=O)[C@H](C)[C@@H](O)[C@]1(C)O` [RU56006], for which the Kd entry at ribosomes [1] is “of the same order of magnitude as that of erythromycin”.

`CC[C@H]1OC(=O)[C@H](C)[C@@H](O[C@H]2C[C@@](C)(OC)[C@@H](O)[C@H](C)O2)[C@H](C)[C@@H](O[C@@H]2O[C@H](C)C[C@H](N(C)C)[C@H]2O)[C@](C)(O)C[C@@H](C)C(=O)[C@H](C)[C@@H](O)[C@]1(C)O` [erythromycin]: the “length of peptides produced by erythromycin-bound ribosomes” value in the data set with ribosomes [2] is on record as “up to 8 residues”.

On to `CC[C@H]1OC(=O)[C@H](C)[C@@H](O[C@H]2C[C@@](C)(OC)[C@@H](O)[C@H](C)O2)[C@H](C)[C@@H](O[C@@H]2O[C@H](C)C[C@H](N(C)C)[C@H]2O)[C@](C)(O)C[C@@H](C)/C(=N\OCOCCOC)[C@H](C)[C@@H](O)[C@]1(C)O` [roxithromycin], for which the acid stability result in data set [3] was “increased acid stability relative to erythromycin”.

On to `CC[C@H]1OC(=O)[C@H](C)[C@@H](O[C@H]2C[C@@](C)(OC)[C@@H](O)[C@H](C)O2)[C@H](C)[C@@H](O[C@@H]2O[C@H](C)C[C@H](N(C)C)[C@H]2O)[C@](C)(OC)C[C@@H](C)C(=O)[C@H](C)[C@@H](O)[C@]1(C)O` [clarithromycin], for which the acid stability entry in data set [3] is on record as “increased acid stability relative to erythromycin”.
